What was measured:
SH-SY5Y cells [1] = experiment: Nuclear count from microscopy images (cellular growth and toxicity); conditions: PKIS2 primary screening; also: reference of the scale not given here
SH-SY5Y cells [2] = experiment: Chemotype enrichment analysis of PKIS2 primary screen hit categories; conditions: PKIS2 primary screening, hit category
endogenous TFEB = experiment: TFEB nuclear translocation, immunocytochemistry high-content imaging; type: cell-based; conditions: PKIS2 primary screening
endogenous TFE3 = experiment: TFE3 nuclear translocation, immunocytochemistry high-content imaging; type: cell-based; conditions: PKIS2 primary screening
SH-SY5Y cells [3] = conditions: PKIS2 primary screening; for DQ Intensity: DQ Red BSA intensity; for DQ Spot: DQ Red BSA spot count
Excerpt: The PKIS2 Library was supplied by The Structural Genomics Consortium at the University of North Carolina at Chapel Hill.

SH-SY5Y cells [4] = experiment: AK (adenylate kinase) release ToxiLight cytotoxicity assay; conditions: PKIS2 primary screening; also: reference of the scale not given here
For DQ Intensity in this document: reference of the scale not given here.
For DQ Spot in this document: reference of the scale not given here.

Structure (SMILES)	Nuclear Count (SH-SY5Y cells [1])	Outcome (SH-SY5Y cells [2])	TFEB % (endogenous TFEB)	TFE3 % (endogenous TFE3)	DQ Intensity (SH-SY5Y cells [3])	DQ Spot (SH-SY5Y cells [3])	AK (SH-SY5Y cells [4])
CS(=O)(=O)CCNCc1ccc(-c2ccc3ncnc(Nc4ccc(OCc5ccccc5)c(Cl)c4)c3c2)o1.Cl [UNC10112604A]	96.24	TFE3	8.74%	24.66%	133.51	89.48	78.47
Cl.Nc1ncnc2occ(-c3ccc(NC(=O)Nc4cc(C(F)(F)F)ccc4F)cc3)c12 [UNC10112792A]	92.62	LYSO TOXIC	5.26%	17.19%	73.11	78.83	84.72
C=CC(=O)Nc1cc2c(Nc3ccc(F)c(Cl)c3)ncnc2cc1OCCCN1CCOCC1 [UNC10126563B]	114.57	TOXIC	7.79%	16.19%	67.23	74.22	149.52
Cc1ccn2nc(-c3ccc(F)cc3)c(-c3ccncc3)c2c1.Cl [UNC10224989A]	114.75	TFEB	29.24%	6.03%	96.51	106.96	121.47
CS(=O)(=O)c1ccc(-c2nc3n(c2-c2ccncc2)CCC3)cc1 [UNC10224995A]	122.53	TOXIC	6.71%	13.24%	130.38	113.84	200.60
Cl.c1ccc(-c2ccc3c(Nc4ccc5[nH]ncc5c4)ccnc3c2)nc1 [UNC10225007A]	105.78	LYSO TOXIC	7.66%	16.03%	77.57	57.65	108.57
Nc1ncc(-c2ccc3nccc(-c4ccncc4)c3c2)cc1S(=O)(=O)N1CCOCC1 [UNC10225011A]	96.85	DQ Only	0.58%	1.48%	150.72	94.12	92.69
COc1cc2nccc(Nc3ccc(NC(=O)c4ccc(C)cc4)c(O)c3)c2cc1OC.Cl [UNC10225013A]	63.58	LYSO TOXIC	33.18%	46.99%	86.65	65.59	100.53
Cl.Cl.NCC(C(=O)Nc1cc(Br)c(-c2ccnc3[nH]ccc23)s1)c1ccccc1 (stereo not drawn) [UNC10225027A]	108.23	TFE3	6.97%	26.86%	115.17	95.94	80.33
Cl.Cl.NC[C@H](CC1CCCCC1)NC(=O)c1ccc(-c2ccnc3[nH]ccc23)s1 [UNC10225041A]	83.64	TFEB + DQ Int	14.98%	16.73%	229.52	72.59	135.71
c1ccc(-c2n[nH]cc2Nc2ccnc3ccccc23)nc1 [UNC10225048A]	152.96	LYSO TOXIC	2.79%	9.11%	106.75	56.59	99.18
COc1cc(Nc2ccnc3cc(-c4ccncc4)ccc23)cc(OC)c1OC.Cl [UNC10225049A]	54.75	DQ Only	12.84%	16.25%	164.74	83.88	108.07
c1ccc(Oc2ccc(Nc3ccnc4cc(-c5ccc(CNCCN6CCOCC6)o5)ccc34)cc2)nc1 [UNC10225054A]	92.65	LYSO TOXIC	22.56%	33.41%	95.11	49.97	119.39
CC(C)NCC(Cc1ccccc1)NC(=O)c1cc(Br)c(-c2ccnc3[nH]ccc23)s1.Cl.Cl (stereo not drawn) [UNC10225078A]	95.97	LYSO TOXIC	25.83%	47.42%	114.59	48.43	109.26
N#Cc1cnc2cc(-c3cnc(CNCCN4CCOCC4)s3)ccc2c1Nc1ccc(Oc2ccccc2)cc1 [UNC10225079A]	110.49	LYSO TOXIC	5.31%	6.45%	48.97	51.66	71.03

— article PMC9851200, “Multiparameter phenotypic screening for endogenous TFEB and TFE3 translocation identifies novel chemical series modulating lysosome function” (Autophagy, 2022)
